Legend:
MCF7 cells = test: MCF7 cell proliferation assay (ATPlite); assay type: cell-based; conditions: Homo sapiens, 120 hours
Experimental: MCF7 cells were seeded at 1250 cells/well in 50 μl medium/well in black 96 well plates. Cells were incubated for 24 hours before addition of compound. Compounds were diluted in complete medium (50 μl/well) and added to the plates in duplicates. The total volume of medium in the wells was 100 μl, and the final concentration of DMSO 0.5%. Complete medium used was DMEM with GlutaMAX containing 10% FBS and pen/strep.
120 hours after addition of compounds, the plates were harvested and analyzed by ATPlite 1 Step (Perkin Elmer, cat no 6016739) according to the manufactures recommendation. Briefly, 100 μl ATP lite solution was added to each well, plates were vortexed at 700 rpm 2 minutes, followed by 20 minutes incubation in the dark, and then analyzed for luminescence on EnSpire 2300 Mulitilabel reader (Perkin Elmer). EC50 values were calculated using GraphPad Prism 6.

PLU1 (KDM5B) = target: T1, PLU1 (KDM5B) (Homo sapiens, UniProt Q9UGL1); test: Histone lysine demethylase AlphaLISA assay, PLU1; assay type: biochemical; conditions: substrate H3K4M3B
T1 construct: 1-809; host or cells: E. coli
T1 sequence (Q9UGL1 1-809): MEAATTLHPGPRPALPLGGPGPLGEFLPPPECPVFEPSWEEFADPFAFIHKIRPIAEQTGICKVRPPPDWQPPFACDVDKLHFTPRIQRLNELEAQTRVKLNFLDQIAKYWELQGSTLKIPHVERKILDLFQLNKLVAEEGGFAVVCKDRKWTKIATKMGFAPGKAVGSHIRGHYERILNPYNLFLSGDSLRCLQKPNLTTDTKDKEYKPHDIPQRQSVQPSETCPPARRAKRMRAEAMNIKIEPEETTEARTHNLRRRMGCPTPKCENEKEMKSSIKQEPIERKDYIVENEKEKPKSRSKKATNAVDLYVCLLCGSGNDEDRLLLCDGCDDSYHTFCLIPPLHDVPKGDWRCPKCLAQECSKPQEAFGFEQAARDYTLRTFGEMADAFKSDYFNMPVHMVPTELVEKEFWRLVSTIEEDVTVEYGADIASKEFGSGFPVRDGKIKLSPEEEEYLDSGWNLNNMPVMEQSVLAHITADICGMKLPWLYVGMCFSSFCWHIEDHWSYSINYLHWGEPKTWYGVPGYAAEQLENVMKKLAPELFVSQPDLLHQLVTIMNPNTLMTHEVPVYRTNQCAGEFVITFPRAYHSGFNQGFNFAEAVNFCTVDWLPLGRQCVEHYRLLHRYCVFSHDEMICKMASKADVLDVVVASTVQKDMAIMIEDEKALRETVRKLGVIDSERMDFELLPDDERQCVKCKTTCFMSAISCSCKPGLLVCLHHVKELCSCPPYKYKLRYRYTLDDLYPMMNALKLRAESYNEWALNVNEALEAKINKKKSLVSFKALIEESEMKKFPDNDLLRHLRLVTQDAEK
Experimental: (§1) Example 2: Histone Lysine Demethylase AlphaLISA Assays for IC50 Value Determination
(§2) Assays are performed analogously to the protocol described by Perkin Elmer (Roy et al. Perkin Elmer Technical Note: AlphaLISA #12, April 2011).
(§3) Enzymes are dissolved in enzyme buffer and incubated for 10 min before 5 μL is added to 5 μL 3% DMSO solutions of compounds in enzyme buffer. Incubated for another 10 minutes, before 5 μL substrate solution is added and the reaction mixture is incubated at room temperature for the given period. 10 μL acceptor beads, suspended at given dilutions in Epigenetic Buffer (Perkin Elmer AL008) from stock, are added and the suspension is incubated 60 minutes in the dark at room temperature, before 10 μL suspension (at the given dilutions in Epigenetic Buffer) of streptavidin donor beads (Perkin Elmer 6760002) in Epigenetic Buffer is added. After incubation at room temperature in the dark the plates are read. Reaction conditions are seen in Table 2b.

UTX (KDM6A) = target: T2, UTX (KDM6A) (Homo sapiens, UniProt O15550); test: Histone lysine demethylase AlphaLISA assay, UTX; assay type: biochemical; conditions: substrate BK27M3
T2 construct: 919-1401; host or cells: E. coli
Experimental: as §1, §2, §3

GASC1 (KDM4C, JMJD2C) = target: T3, GASC1 (KDM4C, JMJD2C) (Homo sapiens, UniProt Q9H3R0); test: Histone lysine demethylase AlphaLISA assay, GASC1; assay type: biochemical; conditions: substrate BK9M3
T3 construct: 1-349; host or cells: E. coli
T3 sequence (Q9H3R0 1-349): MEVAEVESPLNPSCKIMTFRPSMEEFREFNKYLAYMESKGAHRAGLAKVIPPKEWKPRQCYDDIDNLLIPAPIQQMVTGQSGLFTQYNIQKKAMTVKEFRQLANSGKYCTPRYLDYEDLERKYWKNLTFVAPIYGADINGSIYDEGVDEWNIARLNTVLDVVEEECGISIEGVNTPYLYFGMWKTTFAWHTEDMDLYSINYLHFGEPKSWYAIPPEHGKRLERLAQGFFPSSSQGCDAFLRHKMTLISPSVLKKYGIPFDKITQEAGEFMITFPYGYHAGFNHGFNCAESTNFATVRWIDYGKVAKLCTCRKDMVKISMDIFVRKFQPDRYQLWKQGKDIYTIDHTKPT
Experimental: as §1, §2, §3

T2 sequence (O15550 919-1401): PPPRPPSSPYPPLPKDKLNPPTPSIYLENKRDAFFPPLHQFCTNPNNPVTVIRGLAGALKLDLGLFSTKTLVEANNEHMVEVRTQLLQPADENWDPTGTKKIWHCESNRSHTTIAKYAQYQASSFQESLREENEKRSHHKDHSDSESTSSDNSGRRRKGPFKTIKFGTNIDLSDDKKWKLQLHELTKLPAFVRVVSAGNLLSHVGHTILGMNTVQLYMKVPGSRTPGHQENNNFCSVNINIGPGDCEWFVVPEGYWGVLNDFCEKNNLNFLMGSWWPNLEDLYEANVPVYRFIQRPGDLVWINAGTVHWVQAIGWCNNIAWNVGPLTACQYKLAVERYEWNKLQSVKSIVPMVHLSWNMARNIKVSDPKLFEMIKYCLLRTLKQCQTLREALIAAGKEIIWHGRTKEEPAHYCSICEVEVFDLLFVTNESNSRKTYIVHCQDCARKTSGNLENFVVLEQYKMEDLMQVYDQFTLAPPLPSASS

| Compound | EC50 (MCF7 cells) | IC50 (PLU1 (KDM5B)) | IC50 (UTX (KDM6A)) | IC50 (GASC1 (KDM4C, JMJD2C)) |
| --- | --- | --- | --- | --- |
| CCN(CCN(C)C)C(=O)CNCc1cc(C(=O)OC(C)CCN(C)C(=O)C(F)(F)F)ccn1 (stereo not drawn) [drawing 281, 4-(2,2,2-trifluoro-N-methylacetamido)butn-2-yl 2-{[({[2-(dimethylamino)ethyl](ethyl)carbamoyl}methyl)amino]methyl}pyridine-4-carboxylate] | < 1000 nM |  |  |  |
| CCCCCCCCCCCCCCCC(=O)OCC(COC(=O)CCCCCCCCCCCCCCC)OC(=O)c1ccnc(CNCC(=O)N(CC)CCN(C)C)c1 [drawing 285, 2-(2-{[({[2-(dimethylamino)ethyl](ethyl)carbamoyl}methyl)amino]methyl}pyridine-4-carbonyloxy)-3-(hexadecanoyloxy)propyl hexadecanoate] | < 1000 nM |  |  |  |
| CCN(CC)CCCCNCc1cc(C(=O)Oc2ccc(OC)cc2)ccn1 [drawing 269, 4-methoxyphenyl 2-({[4-(diethylamino)butyl]amino}methyl)pyridine-4-carboxylate] | < 1000 nM |  |  |  |
| CCOC(=O)c1ccnc(CNCC(=O)N(CC)CCN(C)C)c1 [drawing 282, ethyl 2-{[({[2-(dimethylamino)ethyl](ethyl)carbamoyl}methyl)amino]methyl}pyridine-4-carboxylate] | < 1000 nM |  |  |  |
| CCN(CC)CCCCNCc1cc(C(=O)Oc2c(C)cccc2C)ccn1 [drawing 274, 2,6-dimethylphenyl 2-({[4-(diethylamino)butyl]amino}methyl)pyridine-4-carboxylate] | < 1000 nM |  |  |  |
| CCOC(=O)N(C)c1ccc(COC(=O)c2ccnc(CNCCCCN(CC)CC)c2)cc1 [drawing 277, {4-[(ethoxycarbonyl)(methyl)amino]phenyl}methyl 2-({[4-(diethylamino)butyl]amino}methyl)pyridine-4-carboxylate] | < 1000 nM |  |  |  |
| CCN(CCN(C)C)C(=O)CNCc1cc(C(=O)OC)ccn1 [drawing 287, methyl 2-{[({[2-(dimethylamino)ethyl](ethyl)carbamoyl}methyl)amino]methyl}pyridine-4-carboxylate] | < 1000 nM |  |  |  |
| CCOC(=O)Nc1ccc(COC(=O)c2ccnc(CNCCCCN(CC)CC)c2)cc1 [drawing 272, {4-[(ethoxycarbonyl)amino]phenyl}methyl 2-({[4-(diethylamino)butyl]amino}methyl)pyridine-4-carboxylate] | 1000 to 50000 nM |  |  |  |
| CCN(CCN(C)C)C(=O)CNCc1cc(C(=O)OCCF)ccn1 [drawing 294, 2-fluoroethyl 2-{[({[2-(dimethylamino)ethyl](ethyl)carbamoyl}methyl)amino]methyl}pyridine-4-carboxylate] | < 1000 nM |  |  |  |
| CCN(CC)CCCCNCc1cc(C(=O)OCCCN(C)C)ccn1 [drawing 271, 3-(dimethylamino)propyl 2-({[4-(diethylamino)butyl]amino}methyl)pyridine-4-carboxylate] | 1000 to 50000 nM |  |  |  |
| CCN(CCN(C)C)C(=O)CNCc1cc(C(=O)Oc2ccc(C(C)(C)C)cc2)ccn1 [drawing 278, 4-tert-butylphenyl 2-{[({[2-(dimethylamino)ethyl](ethyl)carbamoyl}methyl)amino]methyl}pyridine-4-carboxylate] | < 1000 nM |  |  |  |
| CCN(CCN(C)C)C(=O)CNCc1cc(C(=O)OC(C)CCNC(=O)C(F)(F)F)ccn1 (stereo not drawn) [drawing 280, 4-(trifluoroacetamido)butan-2-yl 2-{[({[2-(dimethylamino)ethyl](ethyl)carbamoyl}methyl)amino]methyl}pyridine-4-carboxylate] | < 1000 nM |  |  |  |
| O=C(O)c1ccnc(CNCCCN2CCC(Cc3ccccc3)CC2)c1 [drawing 265, 2-({[3-(4-benzylpiperidin-1-yl)propyl]amino}methyl)pyridine-4-carboxylic acid] | 1000 to 50000 nM |  |  |  |
| CN(CCCNCc1cc(C(=O)O)ccn1)Cc1ccccc1F [drawing 264, 2-{[(3-{[(2-fluorophenyl)methyl](methyl)amino}propyl)amino]methyl}pyridine-4-carboxylic acid] | 1000 to 50000 nM |  |  |  |
| CCOC(=O)c1ccccc1OC(=O)c1ccnc(CNCCCCN(CC)CC)c1 [drawing 270, 2-(ethoxycarbonyl)phenyl 2-({[4-(diethylamino)butyl]amino}methyl)pyridine-4-carboxylate] | < 1000 nM |  |  |  |
| C=CC(CCN(C)C(=O)C(F)(F)F)OC(=O)c1ccnc(CNCC(=O)N(CC)CCN(C)C)c1 (stereo not drawn) [drawing 284, 5-(2,2,2-trifluoro-N-methylacetamido)pent-1-en-3-yl 2-{[({[2-(dimethylamino)ethyl](ethyl)carbamoyl}methyl)amino]methyl}pyridine-4-carboxylate] | < 1000 nM |  |  |  |
| CCN(CCN(C)C)C(=O)CNCc1cc(C(=O)O)ccn1 [drawing 268, 2-{[({[2-(dimethylamino)ethyl](ethyl)carbamoyl}methyl)amino]methyl}pyridine-4-carboxylic acid] | 1000 to 50000 nM |  |  |  |
| CCOC(=O)c1ccccc1OC(=O)c1ccnc(CNCC(=O)N(CC)CCN(C)C)c1 [drawing 276, 2-(ethoxycarbonyl)phenyl 2-{[({[2-(dimethylamino)ethyl](ethyl)carbamoyl}methyl)amino]methyl}pyridine-4-carboxylate] | 1000 to 50000 nM |  |  |  |
| CSCCNCc1cc(C(=O)O)ccn1 [#12, 2-({[2-(methylsulfanyl)ethyl]amino}methyl)pyridine-4-carboxylic acid] |  | < 100 nM | ≥ 1000 nM | < 100 nM |
| O=C(O)c1ccnc(CNC[C@@H](O)CO)c1 [#3, 2-({[(2R)-2,3-dihydroxypropyl]amino}methyl)pyridine-4-carboxylic acid] |  | < 100 nM | ≥ 1000 nM | 100 to 1000 nM |
| CCOC(=O)c1ccccc1OC(=O)c1ccnc(CNCC(=O)N(CC)CCN(C)C)c1 [#59, 2-(ethoxycarbonyl)phenyl 2-{[({[2-(dimethylamino)ethyl](ethyl)carbamoyl}methyl)amino]methyl}pyridine-4-carboxylate] |  | < 100 nM | < 100 nM | < 100 nM |
| CC(C)CCNCc1cc(C(=O)O)ccn1 [#22, 2-{[(3-methylbutyl)amino]methyl}pyridine-4-carboxylic acid] |  | 100 to 1000 nM | ≥ 1000 nM | 100 to 1000 nM |
| O=C(O)c1ccnc(CNCC(=O)N2CCC[C@@H]2CN2CCCC2)c1 [#18, 2-[({2-oxo-2-[(2R)-2-(pyrrolidin-1-ylmethyl)pyrrolidin-1-yl]ethyl}amino)methyl]pyridine-4-carboxylic acid] |  | < 100 nM | ≥ 1000 nM | < 100 nM |
| {4-[(ethoxycarbonyl)amino]phenyl}methyl 2-({[4-(diethylamino)butyl]amino}methyl)pyridine-4-carboxylate [#55] |  | < 100 nM | ≥ 1000 nM | 100 to 1000 nM |
| COCCN1CCN(C(=O)CNCc2cc(C(=O)O)ccn2)CC1 [#16, 2-[({2-[4-(2-methoxyethyl)piperazin-1-yl]-2-oxoethyl}amino)methyl]pyridine-4-carboxylic acid] |  | < 100 nM | ≥ 1000 nM | < 100 nM |

Source: patent US10221139B2, “Inhibitors of histone demethylases” (Gilead Sciences, Inc., priority 2012, dated 2019)
